From ChEMBL document CHEMBL1201862, “PubChem BioAssay data set” (2004)
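Grown in 96-well plates, cells were treated for 48 hours with each compound at five concentrations. Insufficient inhibition: endpoint recorded as highest concentration tested. GI50 marks 50% less growth.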 The source made the active and inactive calls. Rule as the data show it: active = GI50 up to about 1.1 µM and inactive = higher.

Assays:
Assay in all cases: growth of human tumour cells (NCI), 48 h
NCI-H522 = tested on: NCI-H522
HL-60 = tested on: HL-60
Malme-3M = tested on: Malme-3M
SNB-19 = tested on: SNB-19
SK-OV-3 = tested on: SK-OV-3
786-0 = tested on: 786-0
SNB-75 = tested on: SNB-75
UO-31 = tested on: UO-31
NCI-H460 = tested on: NCI-H460
HCC 2998 = tested on: HCC 2998
LOX IMVI = tested on: LOX IMVI
NCI-H23 = tested on: NCI-H23
SN12C = tested on: SN12C
MOLT-4 = tested on: MOLT-4
SF-295 = tested on: SF-295
ACHN = tested on: ACHN
UACC-62 = tested on: UACC-62
T47D = tested on: T47D
MCF7 = tested on: MCF7
PC-3 = tested on: PC-3

Fc1cccc(F)c1C1SCc2nc3ccccc3n21 (centres undefined) [THIAZOLOBENZIMIDAZOLE]
GI50 (NCI-H522): 53.7 µM (inactive) | GI50 (HL-60): 25.4 µM (inactive) | GI50 (Malme-3M): 55.5 µM (inactive) | GI50 (SNB-19): > 100 µM (inactive) | GI50 (SK-OV-3): > 100 µM (inactive) | GI50 (786-0): > 100 µM (inactive) | GI50 (SNB-75): > 100 µM (inactive) | GI50 (UO-31): 51.5 µM (inactive) | GI50 (NCI-H460): 47.3 µM (inactive) | GI50 (HCC 2998): > 100 µM (inactive) | GI50 (LOX IMVI): 80.4 µM (inactive) | GI50 (NCI-H23): 45.5 µM (inactive) | GI50 (SN12C): > 100 µM (inactive) | GI50 (MOLT-4): 35.3 µM (inactive) | GI50 (SF-295): 39.8 µM (inactive) | GI50 (ACHN): > 100 µM (inactive) | GI50 (UACC-62): 47 µM (inactive)

O=C(/C=N/c1ccccc1C(=O)[O-])c1cccs1.O=C(/C=N/c1ccccc1C(=O)[O-])c1cccs1.[Zn+2]
GI50 (NCI-H522): 21.1 µM (inactive) | GI50 (HL-60): 43.3 µM (inactive) | GI50 (Malme-3M): > 10 µM (inactive) | GI50 (SNB-19): 43.1 µM (inactive) | GI50 (SK-OV-3): 20.5 µM (inactive) | GI50 (786-0): > 100 µM (inactive) | GI50 (SNB-75): 14.8 µM (inactive) | GI50 (UO-31): > 100 µM (inactive) | GI50 (NCI-H460): 71.8 µM (inactive) | GI50 (HCC 2998): > 10 µM (inactive) | GI50 (LOX IMVI): 27.4 µM (inactive) | GI50 (NCI-H23): 88.3 µM (inactive) | GI50 (SN12C): > 10 µM (inactive) | GI50 (MOLT-4): 34 µM (inactive) | GI50 (SF-295): 20.4 µM (inactive) | GI50 (ACHN): > 100 µM (inactive) | GI50 (UACC-62): 20.8 µM (inactive)

CCOc1ccc2c(c1)/C(=C(\C(Cl)=C(Cl)Cl)[N+](=O)[O-])N2
GI50 (Malme-3M): > 100 µM (inactive) | GI50 (SNB-19): > 100 µM (inactive) | GI50 (SK-OV-3): > 100 µM (inactive) | GI50 (786-0): > 100 µM (inactive) | GI50 (SNB-75): > 100 µM (inactive) | GI50 (UO-31): > 100 µM (inactive) | GI50 (T47D): 48.9 µM (inactive) | GI50 (NCI-H460): > 100 µM (inactive) | GI50 (HCC 2998): > 100 µM (inactive) | GI50 (NCI-H23): > 100 µM (inactive) | GI50 (MCF7): > 100 µM (inactive) | GI50 (SN12C): > 100 µM (inactive) | GI50 (MOLT-4): > 100 µM (inactive) | GI50 (PC-3): > 100 µM (inactive) | GI50 (SF-295): > 100 µM (inactive) | GI50 (ACHN): > 100 µM (inactive) | GI50 (UACC-62): > 100 µM (inactive)

COc1ccc(NCC#N)cc1
GI50 (NCI-H522): > 100 µM (inactive) | GI50 (HL-60): 52.8 µM (inactive) | GI50 (Malme-3M): > 100 µM (inactive) | GI50 (SNB-19): > 100 µM (inactive) | GI50 (SK-OV-3): > 100 µM (inactive) | GI50 (786-0): 25.1 µM (inactive) | GI50 (SNB-75): 76.2 µM (inactive) | GI50 (UO-31): > 100 µM (inactive) | GI50 (NCI-H460): > 100 µM (inactive) | GI50 (HCC 2998): > 100 µM (inactive) | GI50 (LOX IMVI): > 100 µM (inactive) | GI50 (NCI-H23): > 100 µM (inactive) | GI50 (SN12C): > 100 µM (inactive) | GI50 (MOLT-4): > 100 µM (inactive) | GI50 (SF-295): > 100 µM (inactive) | GI50 (ACHN): > 100 µM (inactive) | GI50 (UACC-62): 83.4 µM (inactive)

FC(F)(F)c1nc(-c2ccccc2)oc1Sc1oc(-c2ccccc2)nc1C(F)(F)F
GI50 (NCI-H522): 45.8 µM (inactive) | GI50 (HL-60): > 100 µM (inactive) | GI50 (Malme-3M): > 100 µM (inactive) | GI50 (SNB-19): 87.3 µM (inactive) | GI50 (SK-OV-3): 65.3 µM (inactive) | GI50 (786-0): > 100 µM (inactive) | GI50 (SNB-75): 29.7 µM (inactive) | GI50 (UO-31): > 100 µM (inactive) | GI50 (NCI-H460): 99.1 µM (inactive) | GI50 (HCC 2998): > 100 µM (inactive) | GI50 (LOX IMVI): > 100 µM (inactive) | GI50 (NCI-H23): > 100 µM (inactive) | GI50 (SN12C): > 100 µM (inactive) | GI50 (MOLT-4): > 100 µM (inactive) | GI50 (SF-295): 34.4 µM (inactive) | GI50 (ACHN): 28.8 µM (inactive) | GI50 (UACC-62): > 100 µM (inactive)

COc1cc([C@@H]2c3cc4c(cc3[C@@H](NC(=O)c3ccc(C#N)cc3)C3COC(=O)[C@@H]32)OCO4)cc(OC)c1O (some centres undefined)
GI50 (NCI-H522): 0.451 µM (active) | GI50 (HL-60): 0.138 µM (active) | GI50 (Malme-3M): 0.355 µM (active) | GI50 (SNB-19): 0.348 µM (active) | GI50 (SK-OV-3): 0.374 µM (active) | GI50 (786-0): 0.411 µM (active) | GI50 (SNB-75): 0.673 µM (active) | GI50 (UO-31): 4.03 µM (inactive) | GI50 (NCI-H460): < 0.01 µM (active) | GI50 (HCC 2998): 1.6 µM (inactive) | GI50 (LOX IMVI): 0.26 µM (active) | GI50 (NCI-H23): 0.198 µM (active) | GI50 (SN12C): 0.207 µM (active) | GI50 (MOLT-4): 3.63 µM (inactive) | GI50 (SF-295): 0.233 µM (active) | GI50 (ACHN): 0.0914 µM (active) | GI50 (UACC-62): 0.316 µM (active)

CCOC(=O)/C(=C\c1cccs1)P(=O)(OCC)OCC
GI50 (NCI-H522): 14.2 µM (inactive) | GI50 (HL-60): 13.9 µM (inactive) | GI50 (Malme-3M): 22.7 µM (inactive) | GI50 (SNB-19): 53.2 µM (inactive) | GI50 (SK-OV-3): 38.9 µM (inactive) | GI50 (786-0): 21.9 µM (inactive) | GI50 (SNB-75): 35.6 µM (inactive) | GI50 (UO-31): 19.7 µM (inactive) | GI50 (NCI-H460): 20.1 µM (inactive) | GI50 (HCC 2998): 18.4 µM (inactive) | GI50 (LOX IMVI): 15.7 µM (inactive) | GI50 (NCI-H23): 18.9 µM (inactive) | GI50 (SN12C): 19.7 µM (inactive) | GI50 (MOLT-4): 25.8 µM (inactive) | GI50 (SF-295): 29.4 µM (inactive) | GI50 (ACHN): 17.6 µM (inactive) | GI50 (UACC-62): 16.4 µM (inactive)
